Experimental data taken from US20060160869A1, “Ubiquitin ligase inhibitors” (Rigel Pharmaceuticals, Inc., priority 2005, published 2006).

How the values were obtained:
MDM2 = MDM2 (Homo sapiens, UniProt Q00987); assay: MDM2 gel-based E3 ligase assay; type: biochemical; conditions: compound at 20 μM; result in words
Description: E3 (His-APC11/APC2—“APC”) auto-ubiquitination was measured as described in U.S. patent application Ser. No. 09/826,312 (Publication No. US-2002-0042083-A1), which is incorporated herein in its entirety. Details of the protocol are described below. Activity in the presence of compound was determined relative to a parallel control in which only DMSO is added. The IC50 values were typically determined using 6 or 8 different concentrations of compound, although as few as 2 concentrations may be used to approximate the IC50 values.
Corning 96-well plates (Corning 3650) were blocked with 100 μl of Blocking Buffer for 1 hour at room temperature. The plates were washed 4 times with 225 μl of 1×PBS and 80 μl of the reaction buffer were added that contained 100 ng/well of Flag-ubiquitin. To this, 10 μl of the test compound diluted in DMSO were added. After the test compound was added, 10 μl of E1 (human), E2 (Ubch5c) and APC in Protein Buffer were added to obtain a final concentration of 5 ng/well of E1, 20 ng/well of E2 and 100 ng/well APC. The plates were shaken for 10 minutes and incubated at room temperature for 1 hour. After incubation, the reaction was stopped by adding 25 μl of loading buffer (non-reducing) per well and the plates were heated at 95° C. for 5 minutes. An aliquot of each well was run on a 10% NugePage Gel and analyzed by Western Blot using the antibody mix and Lumino substrate described below. The luminescence was measured by using a BMG luminescence microplate reader.
hMDM2 Plate/Gel is Mouse double minute 2, human homolog. This protein belongs to the E3 RING finger ligase group.

[1] = test system: p53 reporter system in p53 wild-type U2OS cell line; assay: p53-dependent transcription reporter assay, U20SRE; type: cell-based; conditions: p53 +ve cell type; maximal fold induction over DMSO control
Excerpt: Stable lines of U2OS (osteosarcoma; Wild-type p53 positive), HCT116 (colorectal carcinoma; Wild-type p53 positive) and H1299 (lung non-small cell carcinoma; p53 null) carrying p53-dependent transcriptional regulatory element linked to a Luciferase reporter gene and H1299 carrying a 5′-regulatory region of GADD45 linked to Luciferase were used.
Day 1: Cells were re-plated into 96-well plates at suitable densities to make 50-60% confluence on Day 2. The plating densities are as follows: 7.5×10^3 cells/well (or 2.5×10^4 cells/cm^2) for U2OS; 1.5×10^4 cells/well (or 5.0×10^4 cells/cm^2) for HCT116; and 1.0×10^4 cells/well (or 3.3×10^4 cells/cm^2) for H1299.
Day 2: The compounds or control drugs were diluted in dimethyl sulfoxide (DMSO) and added to the wells to create 6-points/2-fold serial dilution (20, 10, 5, 2.5, 1.25, 0.625 and 0 μM) for each compound. The DMSO concentration was adjusted to 0.2% in all wells.
Day 3: Twenty to 24 hours after compound addition, cells were twice washed with PBS and lysed with Glo-lysis buffer (100 μl/well, Promega; Cat#E2661). Plates were subjected to gentle agitation on a table-top shaker for 5 minutes at room temperature. Fifty μl of lysate was transferred to an assay plate to test for luciferase activity and mixed with 2× assay buffer (Promega; Cat# E1483). The reaction mixture was left at room temperature for 2 minutes and then luminescence was measure by a luminometer (Victor™, 1420 Multilabel Counter, Wallac).
Data analysis was done on Excel software (Microsoft). Values in Table 4 represent maximal fold induction over negative control (DMSO only) and are the mean of at least duplicate experiments.
U20SRE is a p53 wild-type U2OS cell line containing p53 reporter system. If the compound acts against MDM2, p53 activity increases.

U2OS cells = assay: PAD anti-proliferation assay, U2OS; type: cell-based; conditions: Homo sapiens, 48 hours, read-out: PAD/U20S IC50
Description: A549 (ATCC# CCL 185), HeLa (ATCC# CCL 2), HCT116 (ATCC# CCL-247), and H 1299 (ATCC# CRL-5803) cells were maintained in T175 flasks following the ATCC recommended media and handling procedures. Flasks reaching approximately 70% confluency were trypsinized and resuspended in RPMI media (Cell Gro catalog number 10 040 CM) modified to contain 5% FBS, 100 ug/mlPen/Strep (Cell Gro catalog number 30 002 CL), and 0.3 mg/ml L Glutamine (Cell Gro catalog number 25 003 CL). A 20,000 cells/ml solution was made for plating. Cells were plated in black Packard 96 well plates by placing 100 μl per well (2,000 cells per well).
Compounds and additional media were added 24′ hours after cell plating. A compound master plate was created with concentrations 500 times greater than the final concentration added to the cells. All compound testing was done in duplicate using 3 fold dilutions starting with 10 mM. All outside wells (and 4 internal wells) were DMSO controls. Taxol and at least one additional control were run on all plates. Three microliters of the compound master plate were added to deep well blocks containing 750 μl of RPMI media. One hundred microliters were transferred from the compound/media deep well blocks to the plated cells resulting in a 500 fold dilution of the compounds. Cells were grown at 37° C., 5% CO2 for 48 hours.
Cells to be analyzed by photography were fixed and stained. One hundred microliters of media were removed and 100 μl of 2% paraformaldehyde was added to each well. Plates were left on the benchtop for 45 minutes. A staining solution containing 1.55 μl of 1 mg/ml DAPI added to 18.75 ml PBS was warmed for 15 minutes at 37° C. The cells were aspirated prior to washing with 100 μl of PBS. Seventy microliters of PBS were aspirated and 170 μl of the DAPI solution were added to each well of fixed cells. Plates were left at room temperature for one hour then aspirated and washed twice with 100 μl of PBS. The stained cells were left at 4° C. for a minimum of 16 hours before photographic analysis with Array Scan II (Cellomics). Analysis of the photographic images to determine numbers of live cells (proliferation), apoptotic cells and dead cells, were according to the methods described in U.S. Provisional Patent Application Ser. No. 60/406,714, which incorporated herein in its entirety.
Some cell plates were treated with Promega Cell titer Aqueous 1 kit (Promega—VWR catalog number G3580). In this case, 48 hours after the test compound were added, 100 μl of media were removed and 20 μl of cell titer reagent were added to all wells. Plates were incubated at 37° C. for 45 minutes prior to absorbance reads on the Wallac plate reader at 490 nm for 0.1 sec/well. Similar experiments can be carried out using cell lines U2OS and DLD-1.

MDM2, sequence (Q00987 whole entry): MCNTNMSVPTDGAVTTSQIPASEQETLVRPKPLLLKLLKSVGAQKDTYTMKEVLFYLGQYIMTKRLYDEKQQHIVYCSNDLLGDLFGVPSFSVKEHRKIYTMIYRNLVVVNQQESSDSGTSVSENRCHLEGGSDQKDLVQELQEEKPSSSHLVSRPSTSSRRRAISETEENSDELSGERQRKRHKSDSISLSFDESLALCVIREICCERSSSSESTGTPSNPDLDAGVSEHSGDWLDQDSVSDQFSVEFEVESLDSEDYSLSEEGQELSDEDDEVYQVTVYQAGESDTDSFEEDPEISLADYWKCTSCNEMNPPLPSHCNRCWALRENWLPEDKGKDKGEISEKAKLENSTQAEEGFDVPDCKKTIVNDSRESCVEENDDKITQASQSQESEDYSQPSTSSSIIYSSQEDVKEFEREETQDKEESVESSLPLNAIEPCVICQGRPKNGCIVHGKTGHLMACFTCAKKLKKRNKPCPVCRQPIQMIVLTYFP

Row | MDM2 Gel 20 μM (MDM2) | Fold Induction of p53 activity, U20SRE [1] | IC50 (U2OS cells) | Structure (SMILES)
1 | Weak | b (b means greater than 2) | 1 to 20 µM | O=C(c1ccc(CN(Cc2cccc(OC(F)(F)F)c2)c2nc(-c3ccccc3)cs2)cc1)N1CCNCC1 [compound 275]
2 | Potent | b (b means greater than 2) | 1 to 20 µM | O=C(c1ccc(CN(Cc2cccc(OC(F)(F)F)c2)c2nc(-c3ccc4ccccc4c3)cs2)cc1)N1CCNCC1 [compound 282, 4-(2-naphthyl)-N-[4-(piperazin-1-ylcarbonyl)benzyl]-N-[3-(trifluoromethoxy)benzyl]-1,3-thiazol-2-amine]
3 | Active | b (b means greater than 2) | 1 to 20 µM | COc1cccc(-c2csc(N(Cc3ccc(C(=O)N4CCNCC4)cc3)Cc3cccc(OC(F)(F)F)c3)n2)c1 [compound 351]
4 | Weak | b (b means greater than 2) | 1 to 20 µM | COc1cccc(-c2csc(N(CCOc3ccccc3)Cc3ccc(C(=O)N4CCNCC4)cc3)n2)c1 [compound 352]
5 | Active | a (a means 2 or less) | 1 to 20 µM | COc1cccc(CN(Cc2ccc(C(=O)N3CCNCC3)cc2)c2nc(-c3ccc(Br)cc3)cs2)c1OC [compound 353]
6 | Potent | b (b means greater than 2) | 1 to 20 µM | O=C(c1ccc(CN(CCOc2ccccc2)c2nc(-c3ccc(Cl)c(Cl)c3)cs2)cc1)N1CCNCC1 [compound 360]
